The results in this text go back to article PMC8665362, “Identification of small-molecule allosteric modulators that act as enhancers/disrupters of rhodopsin oligomerization” (The Journal of Biological Chemistry, 2021).

Molecules are shown by their SMILES.

For one assay, the target named is T1, bovine rhodopsin (Bos taurus, UniProt P02699).
T1 construct: The washed ROS with isotonic and hypotonic buffers was used as described above; from tissue; host or cells: bovine rod outer segments (ROS)
The assay can be described thus: rhodopsin Meta II decay assay (Trp265 intrinsic fluorescence). The conditions noted are these: 100 μM compound. The procedure: However, oligomerization of isorhodopsin could affect the chromophore release from opsin. The chromophore release can be measured sensitively by the light-induced increase in intrinsic fluorescence of the Trp^265 residue that occurs upon release of the chromophore after illumination ([43]).
The washed ROS with isotonic and hypotonic buffers was used as described above. The solubilized rhodopsin at 1.05 mg/ml in 20 mM 1,3-bis(tris(hydroxymethyl)methylamino) propane, pH 6.9, 100 mM NaCl, and 1 mM LMNG buffer was incubated for 5 min at 20 °C with 0.7 μl of 100 mM stock solutions of the nine identified hit compounds (100 μM final concentration) in DMSO and centrifuged at 1000g for an additional 5 min. Next, photobleaching was carried out with a 150-W fiber light delivered through a 480 to 520 nm band pass filter (Chroma Technology) for 10 s. Samples were subjected to fluorescence measurements acquired through 150 s in triplicate. The results were analyzed with an L55 luminescence spectrophotometer (PerkinElmer) operating at excitation and emission wavelengths of 300 nm and 335 nm, respectively.

In assay [1] the test system is individual rod photoreceptors. In words: single-cell suction electrode recording from rod outer segments. The conditions noted are these: suction electrode, 250 μM compound. The format is cell-based, mouse (C57BL/6J). The procedure: Because it is possible that reduction of Rmax by compound #1 is due to some effect(s) on the rod photoreceptor inner segment currents that are not directly related to phototransduction ([51], [52]), we conducted also single-cell suction electrode recordings from the ROS from samples that were incubated either in the control medium or in the medium containing enhancer compound #1. The results from single cell recordings were similar to those obtained using ex vivo ERG: Rmax and fractional sensitivity were decreased from 12 (±0.4) to 9 (±0.3) pA and from 3.0 (±0.5) to 1.8 (±0.1)% per photon μm^−2, respectively, by rhodopsin dimerization–enhancing hit #1 (Fig. 6, A–C). Like the ex vivo ERG recordings, light response kinetics was not affected by compound #1 in the single-cell recordings (Fig. 6D).
Suction electrode recordings from individual rod photoreceptors of dark-adapted C57BL/6J mice were conducted as described previously ([65]). Before recordings, isolated retinas were incubated in the control medium (Ames’ medium + 0.1% DMSO) or in the hit compound–containing medium (Ames’ medium +250 μM F2502-0030 (#1)) as described above for ex vivo ERG experiments. After incubation, one half of the retina was chopped with a razor blade and transferred into a chamber where it was perfused at 1 ml/min with Ames’ medium saturated with 95% O2/5% CO2 at 35 °C. Recordings were made from a single ROS, using borosilicate glass electrodes with ∼1.5-μm opening (resistance ∼2 MΩ at 35 °C). The pipette solution was Hepes buffered Ames’ medium composed of 0.88 g Ames’ powder (A1420, Sigma-Aldrich), 0.357 g Hepes (Sigma-Aldrich), and 58.44 mg NaCl in […] distilled and vacuum-filtered water. The pH was adjusted to 7.4 with NaOH. Light responses were recorded to flashes of light ranging from 8 to 700 photons μm^−2 at 500 nm. For analysis, data were low-pass filtered using an 8-pole Bessel filter with cut-off frequency at 30 Hz.

The target of assay [2] is rhodopsin (isorhodopsin) dimerization (Homo sapiens, UniProt P08100). The assay can be described thus: rhodopsin β-gal fragment complementation assay in U2OS opsin-EA/opsin-PK cells. In kind it is cell-based. Set-up: expressed in transfected cells. The conditions noted are these: U2OS opsin-EA/PK cells regenerated with 9-cis-retinal; triplicates; read from Fig. 3A,D. The text has this: To identify small molecules that target rhodopsin dimerization, a cell-based high-throughput screening (HTS) assay was used to screen a diverse library of 50,000 compounds from Life Chemicals. The human osteosarcoma (U2OS) stable cell line was used, which expresses opsin fused with complimentary subunits of β-galactosidase (β-gal), namely, the enzyme acceptor large β-gal subunit (EA) and the enzyme donor, small subunit of β-gal (PK). Upon rhodopsin self-association in vitro, a competent β-gal was formed and chemiluminescent signal was generated in the presence of β-gal substrate (Fig. 1A). For further validation, the β-gal activity assay was used to counter-screen and rule out false positives, affecting the activity of β-gal without affecting rhodopsin (Fig. 1B) ([34]). In an orthogonal assay, rhodopsin dimerization was assessed using a bioluminescence resonance energy transfer (BRET) assay with human embryonic kidney 293 cells expressing opsin fused with Renilla luciferase and opsin fused with Venus (Fig. 1C) ([35], [36]). To form functional visual pigment, opsin-fused proteins were regenerated with 9-cis-retinal to form so-called isorhodopsin ([37]). We chose 9-cis-retinal over photoreceptor-endogenous 11-cis-retinal because of its availability and the prohibitive cost for HTS assays with the native chromophore. Rhodopsin and isorhodopsin have similar biochemical and spectral properties (see ([38])).
All 50,000 compounds were screened, using the β-gal complementation assay at a final concentration of 60 μM with a Z′ factor of 0.75 ± 0.01 and a signal-to-background (S/B) ratio of 123 ± 14.4 (Fig. 2A) ([39]). The activity scores were calculated according to the following equation: (RLU(compound)−RLU(positivecontrol))/(RLU(negativecontrol)−RLU(positivecontrol))×100.
The positive control comprised U2OS cells transfected with both opsin-EA and opsin-PK, mimicking dimer formation (with a 0% score value), and the negative control comprised U2OS cells transfected with opsin-EA only, mimicking disrupted dimer formation (with a 100% score value).
In this study, cultured U2OS opsin-EA and opsin-PK cells were diluted to 2 × 10^5 cells/ml in the culture medium containing 10% fetal bovine serum (Thermo Fisher Scientific) and 1% penicillin-streptomycin 10,000 U/ml (Thermo Fisher Scientific). Cell diluent of 20 μl/well was dispensed into a white ViewPlate-384 (PerkinElmer) using the EL406 plate dispenser (BioTek). As a control, we used U2OS opsin-EA–only expressing cells as a positive control for dimerization disruption generating a minimal luminescence signal, as previously described ([41]). The plates were cultured overnight at 37 °C in 5% CO2, and the next day, under a dim red light, cells were treated with 5 μl/well of 9-cis-retinal (Sigma-Aldrich) at 7.5 μM final concentration. Plates were covered with aluminum foil and cultured overnight at 37 °C in 5% CO2. Next, cells were treated with each of the 50,000 library compounds (Life Chemicals Inc) at a final concentration of 57.6 μM, using a JANUS automated workstation (PerkinElmer), followed by incubation overnight at 37 °C, covered with aluminum foil. The next day, cells were treated with Galacton-Star chemiluminescent substrate (23 μl/well; Thermo Fisher Scientific). The plates were covered with foil and incubated at 20 °C for 2 h, followed by luminescence reading with the EnSpire multimode plate reader (PerkinElmer). Measurements were evaluated with the lowest value being defined as −50% (dimer enhancers) and the highest value as 100% (dimer disrupters) in the compound dataset. All experiments were done under red-light conditions. Identified compounds were retested in triplicates ranging from 180 μM down to 2.4 nM concentrations.

T1 sequence (P02699 whole entry): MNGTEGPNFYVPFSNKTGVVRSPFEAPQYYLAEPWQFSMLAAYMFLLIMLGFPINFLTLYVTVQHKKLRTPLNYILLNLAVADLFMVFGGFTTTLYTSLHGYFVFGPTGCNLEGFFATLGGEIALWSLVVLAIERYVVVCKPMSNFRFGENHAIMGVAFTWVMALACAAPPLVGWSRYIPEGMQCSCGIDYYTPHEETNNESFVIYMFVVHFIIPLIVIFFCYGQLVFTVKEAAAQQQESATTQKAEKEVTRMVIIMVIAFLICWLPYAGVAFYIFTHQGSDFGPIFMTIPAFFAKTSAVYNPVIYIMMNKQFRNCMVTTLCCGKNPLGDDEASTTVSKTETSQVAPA
rhodopsin (isorhodopsin) dimerization, sequence (P08100 whole entry, the tested form may be a part): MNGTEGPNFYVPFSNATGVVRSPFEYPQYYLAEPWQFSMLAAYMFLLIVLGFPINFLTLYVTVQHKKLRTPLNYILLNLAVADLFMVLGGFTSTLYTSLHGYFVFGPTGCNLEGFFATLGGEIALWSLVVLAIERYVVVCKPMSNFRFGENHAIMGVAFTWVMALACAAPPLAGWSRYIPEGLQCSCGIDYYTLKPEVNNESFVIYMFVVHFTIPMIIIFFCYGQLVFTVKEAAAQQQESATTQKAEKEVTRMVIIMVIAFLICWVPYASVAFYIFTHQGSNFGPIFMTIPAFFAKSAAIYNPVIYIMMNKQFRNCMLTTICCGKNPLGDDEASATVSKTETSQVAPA

As for `O=C(CSc1nnc(NC(=O)Cc2ccc(F)cc2)s1)NO` [#1], the “light-induced increase in Trp265 intrinsic fluorescence vs DMSO-treated isorhodopsin” value on bovine rhodopsin is “significantly quenched”. Moreover, the “Meta II decay rate (slope of intrinsic fluorescence over 150 s) relative to DMSO control” value at bovine rhodopsin (bleached rhodopsin, p < 0.0001) was “statistically significant signal reduction”. Besides, the “light response kinetics (single-cell)” value in assay [1] was “not affected”. Also, the “fractional sensitivity (single-cell)” value in assay [1] (control 3.0 (±0.5)) is 1.8 (±0.1) % per photon μm^−2. Besides, in assay [1] (control 12 (±0.4)), the “Rmax (single-cell)” value was 9 (±0.3) pA. In addition, the EC50 in assay [2] amounted to 2300 nM.

For orientation: EC50 means the concentration that produces a half-maximal response. Lower therefore signals an effect from little substance.
